Where no end group is shown, it is not given here.
Assays:
[1] = system: HCMV strain AD169; assay: HCMV plaque formation assay in MRC-5 cells; format: cell-based; settings: for inhibition of HCMV plaque formation as compared to the virus control experiment: 10 micrograms per ml, 7-10 days
[2] = system: Tumor Necrosis Factor-a (TNF-a); assay: Th1/Th2 cytokine profiling assay, TNF-alpha; format: cell-based, mouse; settings: 10 micrograms per ml; Ovalbumin-restimulated Balb/c spleen cells, 72 hours
Method: (§1) The Balb/c mice (originated in 1923, it is a popular strain and is used in many different research disciplines. Also classified as an inbred from the production of 20 size) were immunized on Days 1, 15, and 29 with Ovalbumin (Ovalbumin is the main protein found in egg white, commonly used to stimulate an immunological reaction in test animals) in PBS (5 micrograms/injection). On day 50, spleens of the mice were harvested (3 weeks after last boost with Ovalbumin). Cells were cultured (2×10^5/well in triplicate) and incubated with culture medium or test peptides—10 micrograms per ml—for 30 min. Thereafter, additional Ovalbumin was added to the cells at 10 micrograms/ml for in vitro restimulation of the cells. 72 hours later, cell supernatants were harvested and assayed using the Becton Dickinson Mouse Th1/Th2 Cytokine CBA Kit. This kit can be used to measure Interleukin-2 (IL-2), Interleukin-4 (IL-4), Interleukin-5 (IL-5), Interferon-γ (IFN-γ), and Tumor Necrosis Factor-a (TNF-a) protein levels in a single sample. The kit performance has been optimized for analysis of physiologically relevant concentrations (μg/ml levels) of specific cytokine proteins in tissue culture supernatants and serum samples.

[3] = system: HUVEC; assay: Endothelial tube formation assay; format: cell-based, human; settings: 10 micrograms per ml, 20 hours
Excerpt: Positive control was vehicle only.

[4] = system: Primary Human endothelial cells (HUVEC); assay: Endothelial cell migration assay; format: cell-based; settings: 10 micrograms per ml, 22 hours
Method: Thereafter, designated concentration of testing peptides—10 micrograms per ml—was added in duplicate wells.

[5] = system: Human A549 cells; assay: Apoptosis prevention assay (Annexin-5, C2 ceramide); format: cell-based; settings: 10 micrograms per ml; A549 pretreated 30 min, then C2 ceramide
[6] = system: Interleukin-4 (IL-4); assay: Th1/Th2 cytokine profiling assay, IL-4; format: cell-based, mouse; settings: 10 micrograms per ml; Ovalbumin-restimulated Balb/c spleen cells, 72 hours
Method: as §1

[7] = system: Interferon-γ (IFN-γ); assay: Th1/Th2 cytokine profiling assay, IFN-γ; format: cell-based, mouse; settings: 10 micrograms per ml; Ovalbumin-restimulated Balb/c spleen cells, 72 hours
Method: as §1

[8] = system: Interleukin-2 (IL-2); assay: Th1/Th2 cytokine profiling assay, IL-2; format: cell-based, mouse; settings: 10 micrograms per ml; Ovalbumin-restimulated Balb/c spleen cells, 72 hours
Method: as §1

[9] = system: Interleukin-5 (IL-5); assay: Th1/Th2 cytokine profiling assay, IL-5; format: cell-based, mouse; settings: 10 micrograms per ml; Ovalbumin-restimulated Balb/c spleen cells, 72 hours
Method: as §1

[10] = system: hepatitis B virus (HBV) ayw strain; assay: HBV experimental assay system, HepG2-2.2.15, TaqMan PCR of secreted HBV DNA; format: cell-based; settings: 10 micrograms per ml; HepG2-2.2.15, six days, HBV DNA in supernatant

Row | Compound | antiviral activity of positive control compound ([1]; positive control, HCMV AD169) | change of the production of TNF-alpha in murine spleen cells [2] | increase of the tube formation of human endothelial cells [3] | inhibition of the migration of human endothelial cells [4] | effect on the ceramide-induced apoptosis on human lung cells [5] | change of the production of IL-4 in murine spleen cells [6] | decrease of the production of IFN-γ in murine spleen cells [7] | inhibition of HCMV plaque formation as compared to the virus control experiment [1] | increase of the production of IL-2 in murine spleen cells [8] | decrease of the production of IL-5 in murine spleen cells [9] | inhibition of HBV replication as compared to the virus control infection [10]
1 | Nc1nc(O)c2ncn(COC(CO)CO)c2n1 [Ganciclovir, reference compound] | expected levels of antiviral activity | – | – | – | – | – | – | – | – | – | –
2 | Leu-Val-Val-Tyr-Pro-Trp-Thr-Gln-Arg-OH (LVVYPWTQR-OH) [Peptide 1] | – | did not significantly change | 2% | 4% | did not reduce | did not significantly change | did not significantly change | did not inhibit | 54.3% | 33% | 24.3%
3 | Phe-Glu-Trp-Thr-Pro-Gly-Tyr-Trp-Gln-Pro-Tyr-Ala-Leu-Pro-Leu-OH (FEWTPGYWQPYALPL-OH) [Peptide 2] | – | did not significantly change | 4% | – | 28.6% | did not significantly change | 37.5% | did not inhibit | 68.1% | 38.8% | 26.3%
